Earlier results on 1 compound are cited in patent US20230414783A1, “Biliary Delivery Methods, Compositions and Kits for Use Therein” (AMBYS MEDICINES, INC., priority 2020, published 2023).

The subject of this data set is lysyl oxidase (LOX) family enzymes. The settings on record: subcutaneous injection or intravenous infusion; human subjects.

As for `Cc1cc(F)c(C(=O)Nc2cccc(-c3nncn3C(C)C)n2)cc1-n1cnc(C2CC2)c1` [selonsertib], the clinical efficacy result is “did not demonstrate clinical efficacy”.
